# Measured values from patent US20040248898A1, “Remedies for arteriosclerosis” (priority 2001, published 2004).
# Where two headings read alike, the source gives them in different places.
# Columns and labels:
# human group X sPLA2 [1] = target: T1, human group X sPLA2 (Homo sapiens, UniProt O15496); experiment: Negative charge of isolated human lipoproteins (agarose gel electrophoresis) after group X sPLA2; assay type: biochemical; settings: agent 10 μmol/L; LDL and HDL, 50 nmol/L sPLA2
# T1 sequence (O15496 43-165): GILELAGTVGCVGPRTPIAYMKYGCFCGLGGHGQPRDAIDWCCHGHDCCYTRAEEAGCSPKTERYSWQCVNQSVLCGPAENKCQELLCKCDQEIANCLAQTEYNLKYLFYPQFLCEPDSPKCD
# Description: LDL and HDL were isolated from human plasma by ultracentrifugation (Havel, et al., J. Clin. Invest. 34, 1345-1353 (1955)). Human group IB, IIA and X sPLA2s (50 nmol/L) and CuSO4 (20 μmol/L) were reacted with LDL and HDL (1 mg/ml) at 37° C. for 3, 6, and 24 hours in a solution containing 12.5 mmol/L Tris-HCL buffer (pH 8.0), 125 mg/L bovine serum albumin, and 1 mmol/L calcium chloride. Then, a 1 μg sample of LDL and a 2 μg sample of HDL were electrophoresed on agarose gel (Helena Laboratories, TITAN GEL Lipoprotein; 90V, 25 minutes). After the electrophoresis, the gel was dried at 50 to 60° C. for about 1 hour, stained with 6 ml of a stain solution (Helena Laboratories, Fat Red 7B agarose solution) for about 3 minutes, and then decolorized with 25 ml of a decolorizing solution (70% methanol). In the experiment for determining the activity of a sPLA2 inhibitor (indoxam), a COX inhibitor (indomethacin) or a 5-LOX inhibitor (AA-861), those agents were added to the reaction giving a final concentration of 10 μmol/L, virtually simultaneously with the addition of sPLA2.
# human group X sPLA2 [2] = target: T1, human group X sPLA2; experiment: Fatty acid release from isolated human lipoproteins induced by group X sPLA2; assay type: biochemical; settings: agent 10 μmol/L, added with sPLA2; arachidonic acid from LDL (FIG. 2)
# Description: LDL and HDL were isolated from human plasma by ultracentrifugation (Havel, et al., J. Clin. Invest. 34, 1345-1353 (1955)). Human group IB, IIA and X sPLA2s (0.5 nmol/L to 500 nmol/L) were reacted with LDL and HDL (0.35-1 mg/ml) at 37° C. in a solution containing 12.5 mmol/L Tris-HCL buffer (pH 8.0), 125 mg/L bovine serum albumin, and 1 mmol/L calcium chloride. The fatty acids released from the lipoproteins were extracted according to the method of Dole (Dole, et al., J. Biol. Chem. 235, 2595-2599 (1960)), and were labeled with 9-anthryldiazomethane by the known method (Hanasaki, et al., J. Biol. Chem. 274, 34203-34211 (1999)). Then, the released fatty acids were determined by detecting fluorescence of the labeled products (fatty acids) eluted from high performance liquid chromatography (HPLC) on reverse-phase column (LichroCART 125-4 Superspher 100 RP-18 columnmol/Merck). In order to examine does-dependent release of fatty acids induced by each sPLA2, the lipoprotein was reacted with 0.5, 5, 50, and 500 nmol/L group X sPLA2, and 50 and 500 nmol/L group IB and IIA sPLA2 for 60 minutes. Further, in order to examine time-dependent fatty acid release induced by sPLA2, each 50 nmol/L sPLA2 was used, and the change in the release with time course was traced during the period time of 4 hours after the sPLA2 addition. In the experiment for determining the inhibitory activity of a sPLA2 inhibitor (indoxam; Yokota, et al., Biochim. Biophys. Acta 1438, 213-222 (1999)), a cyclooxygenase (COX) inhibitor (indomethacin) or a 5-lipoxygenase (5-LOX) inhibitor (AA-861; 2,3,5-trimethyl-6-(12-hydroxy-5,10-dodecadiynyl)-1,4-benzoquinone (Yoshimoto, et al., Biochem. Biophys. Acta. 713, 470-473 (1982)), those agents were added to the reaction giving a final concentration of 10 μmol/L, virtually simultaneously with the addition of sPLA2.
# human group V sPLA2 [3] = target: T2, human group V sPLA2 (Homo sapiens, UniProt P39877); experiment: Chromogenic assay for inhibitory activity, group V sPLA2 inhibition tests; assay type: biochemical
# T2 construct: made in house; host or cells: CHO cells, stably transfected (pSVL vector); culture supernatant used
# T2 sequence (P39877 21-138): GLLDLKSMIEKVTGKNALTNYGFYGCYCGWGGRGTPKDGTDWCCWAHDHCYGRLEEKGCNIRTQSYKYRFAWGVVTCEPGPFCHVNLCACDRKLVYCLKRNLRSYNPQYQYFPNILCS
# From the text: (§1) A. Preparation of Cells Expressing Human Group V or X sPLA2 and Preparation of the Culture Supernatant Thereof
# (§2) cDNA sequence encoding human group V or X sPLA2 (Chen et al., J. Biol. Chem, 1994, 269, 2365-2368; and Cupillard et al., J. Biol. Chem, 1997, 272, 15745-15752) was inserted in forward direction downstream the promoter of an expression vector for mammal cells, pSVL SV40 Late Promoter Expression Vector (Amersham Pharmacia Biotech). The expression vector was transfected into CHO host cells using a Lipofect AMINE regent (Gibco BRL) according to the instructions of the manufacturer to provide CHO cells stably expressing human group V or X sPLA2. The cells were incubated in a-MEM medium containing 10% fetal calf serum for 3 days, and the culture supernatant was used to determine the activity of the enzymes.
# (§3) B. Assay for Inhibitory Activity
# (§4) The following chromogenic assay is used to identify and evaluate inhibitors of group V or X sPLA2. The assay has been adapted for high volume screening using 96 well microtiter plates. A general description of this assay is found in the article, “Analysis of Human Synovial Fluid Phospholipase A2 on Short Chain Phosphatidylcholine-Mixed Micelles: Development of a Spectrophotometric Assay Suitable for a Microtiterplate Reader”, by Laure. J. Reynolds, Lori L. Hughes and Edward A Dennis, Analytical Biochemistry, 204, pp 190-197, 1992.
# (§5) A test compound (or a solvent blank) was added according to the predetermined arrangement of the plate, and diheptanoyl thio PC (1 mM) was reacted with human group V or X sPLA2 in the presence of Triton X-100 (0.3 mM), 5,5′-dithiobis-(2-nitrobenzoic acid) (125 μM) in a Tris buffer (25mM, pH7.3), CaCl2 (10 mM), KCl (100 mM), bovine serum albumin. Absorbance at 405 nm is read to estimate the inhibitory activity.
# (§6) The reaction with human group V sPLA2 was performed in 40 μl/well at 40° C. for 45 minutes, and the reaction with human group X sPLA2 was performed in 15 μl/well at 40° C. for 30 minutes.
# human group X sPLA2 [4] = target: T1, human group X sPLA2; experiment: Chromogenic assay for inhibitory activity, group X sPLA2 inhibition tests; assay type: biochemical; parameters: made in house; host or cells: CHO cells, stably transfected (pSVL vector); culture supernatant used
# From the text: as §1, §2, §3, §4, §5, §6
# [5] = test system: mouse peritoneal macrophages; experiment: Uptake of LDL into mouse peritoneal macrophages induced by group X sPLA2 (Oil Red O stain); assay type: cell-based; settings: agent 10 μmol/L; 0.2 mg/ml LDL, 50 nmol/L group X sPLA2, 48 hours
# Description: C57BL/6J mice (male, 8 weeks) were injected peritoneally with 2 ml of a 4% thioglycollate solution, and, 4 days later, the cells from the peritoneal fluids were harvested. The cells were plated on a chamber slide, and incubated for 2 hours in the presence of the serum-free medium (BIO […]: X-VIVO 15). Then, non-adherent cells were removed by the washing procedure to prepare peritoneal macrophages. The cells were added with 0.2 mg/ml LDL (Sigma) and 50 nmol/L group X PLA2, and incubated in the serum-free medium for 48 hours. Uptake of LDL into macrophages were confirmed by immobilizing the cells with 4% formaldehyde for 20 minutes, and then staining the lipids with an Oil Red O stain solution.
# human group V sPLA2 [6] = target: T2, human group V sPLA2; experiment: Fatty acid (linoleic acid) release from isolated human lipoproteins induced by group V sPLA2; assay type: biochemical; settings: agent 10 μmol/L; from LDL (FIG. 8)
# Description: LDL and HDL were isolated from human plasma by ultracentrifugation (Havel, et al., J. Clin. Invest. 34, 1345-1353 (1955)). […] Biol. Chem. 235, 2595-2599 (1960)). The fatty acids were labeled with 9-anthryldiazomethane by the known method ([…], et al., J. Biol. Chem. 274, 34203-34211 (1999)), and then were determined by detecting fluorescence of the labeled products (fatty acids) eluted from high performance liquid chromatography (HPLC) on reverse-phase column (LichroCART 125-4 Superspher 100 RP-18 column, Merck).
# human group V sPLA2 [7] = target: T2, human group V sPLA2; experiment: Degeneration (negative charge, agarose gel electrophoresis) of isolated human lipoproteins by group V sPLA2; assay type: biochemical; settings: agent 10 μmol/L; LDL and HDL, 50 nmol/L sPLA2
# Description: LDL and HDL were isolated from human plasma by ultracentrifugation (Havel, et al., J. Clin. Invest. 34, 1345-1353 (1955)). Human group IIA and V sPLA2s (50 nmol/L) were reacted with LDL and HDL (1 mg/ml) at 37° C. for 3, 6, and 24 hours in a solution containing 12.5 mmol/L Tris-HCL buffer (pH 8.0), 125 mg/L bovine serum albumin, and 1 mmol/L calcium chloride, and then 1 μg of the LDL and 2 μg of the HDL were spotted on an agarose gel (Helena Laboratories, TITAN GEL Lipoprotein), followed by being electrophoresed at 90V for 25 minutes. After the electrophoresis, the gels were dried at 50 to 60° C. for about one hour, stained with 6 ml of a stain solution (Helena Laboratories, Fat Red 7B agarose solution) for about three minutes, and then decolorized with 25 ml of a decolorizing solution (70% methanol).
# [8] = diheptanoyl thio PC 1 mM, 40° C., 45 minutes, absorbance at 405 nm, read-out: IC50 group V sPLA2 inhibition
# [9] = diheptanoyl thio PC 1 mM, 40° C., 30 minutes, absorbance at 405 nm, read-out: IC50 group X sPLA2 inhibition
IC50 (human group V sPLA2 [3]; [8]) [nM],IC50 (human group X sPLA2 [4]; [9]) [nM],Compound,further results
,,"CC1=C(C)C(=O)C(CCCCC#CCCCC#CCO)=C(C)C1=O [AA-861, 2,3,5-trimethyl-6-(12-hydroxy-5,10-dodecadiynyl)-1,4-benzoquinone]",Effect on lipoprotein degeneration (increase in negative charge) induced by group X sPLA2 (human group X sPLA2 [1]): affected neither; Effect on fatty acid release induced by group X sPLA2 (human group X sPLA2 [2]): affected neither
12,,CCc1c(C(=O)C(N)=O)c2c(OCC(=O)O)nc(C)cn2c1Cc1cccc(-c2ccccc2)c1 [Compound 1],
13,,CCc1c(C(=O)C(N)=O)c2c(OCC(=O)O)nc(C)cn2c1Cc1ccccc1Cc1ccccc1 [Compound 2],
5,,CCc1c(C(=O)C(N)=O)c2c(OCC(=O)O)nc(-c3ccccc3)cn2c1Cc1ccccc1 [Compound 3],
2,,NC(=O)C1=CCCc2c1c1c(OCC(=O)O)cccn1c2Cc1ccccc1 [Compound 7],
3,3,NC(=O)c1cccc2c1c1c(OCC(=O)O)cccc1n2CC1CCCCC1 [Compound 8],
1,13,NC(=O)c1cccc2c1c1c(OCC(=O)O)cccc1n2Cc1cccc(Oc2ccccc2)c1 [Compound 9],
7,12,NC(=O)c1cccc2c1c1c(OCC(=O)O)ccc(F)c1n2Cc1ccccc1 [Compound 10],
2,,NC(=O)c1cccc2c1c1c(OCC(=O)O)cc(-c3ccco3)cc1n2Cc1ccccc1 [Compound 11],
,16,CCc1c(C(=O)C(N)=O)c2c(OCC(=O)O)nc(C)cn2c1Cc1ccc(-c2ccccc2)cc1 [Compound 12],
,19,CCc1c(CC(N)=O)c2c(OCC(=O)O)nc(C)cn2c1Cc1ccc(F)cc1 [Compound 13],
,9,CCc1c(C(=O)C(N)=O)c2c(OCC(=O)O)nc(C)cn2c1Cc1ccccc1C1CCCC1 [Compound 14],
,17,CCCc1c(C(=O)C(N)=O)c2c(OCC(=O)O)nc(C)cn2c1Cc1ccc(F)cc1 [Compound 15],
,,CCc1c(C(=O)C(N)=O)c2c(OCC(=O)O)cccc2n1Cc1ccccc1-c1ccccc1 [Compound 19],IC50 (human group V sPLA2 [3]): 6 nM; IC50 (human group X sPLA2 [4]): 26 nM
11,,CCc1c(C(=O)C(N)=O)c2c(OCC(=O)O)nc(C)cn2c1Cc1ccccc1CC1CCCCC1 [Compound 20],
5,,CCc1ccc(-c2ccccc2Cc2c(CC)c(C(=O)C(N)=O)c3c(OCC(=O)O)nc(C)cn23)s1 [Compound 21],
13,,CCc1c(C(=O)C(N)=O)c2c(OCC(=O)O)nc(C)cn2c1Cc1ccccc1-c1ccc(C)s1 [Compound 22],
8,,NC(=O)c1cccc2c1c1c(OCC(=O)O)cccc1n2Cc1ccccc1 [Compound 23],
,,CC(Cc1ccc(O)c(O)c1)C(C)Cc1ccc(O)c(O)c1 (stereo not shown) [NDGA],Effect on group X sPLA2-induced uptake of LDL into the cells [5]: affected neither
,,COc1ccc2c(c1)c(CC(=O)O)c(C)n2C(=O)c1ccc(Cl)cc1 [indomethacin],Effect on lipoprotein degeneration (increase in negative charge) induced by group X sPLA2 (human group X sPLA2 [1]): affected neither; Effect on group X sPLA2-induced uptake of LDL into the cells [5]: affected neither; Effect on linoleic acid release induced by group V sPLA2 (human group V sPLA2 [6]): not affected; Effect on fatty acid release induced by group X sPLA2 (human group X sPLA2 [2]): affected neither; Effect on lipoprotein degeneration induced by group V sPLA2 (human group V sPLA2 [7]): not affected
,,CCc1c(C(=O)C(N)=O)c2c(OCC(=O)O)cccn2c1Cc1ccccc1-c1ccccc1 [indoxam],Effect on lipoprotein degeneration (increase in negative charge) induced by group X sPLA2 (human group X sPLA2 [1]): inhibited; Effect on group X sPLA2-induced uptake of LDL into the cells [5]: inhibited; Effect on linoleic acid release induced by group V sPLA2 (human group V sPLA2 [6]): inhibited; Effect on fatty acid release induced by group X sPLA2 (human group X sPLA2 [2]): inhibited; Effect on lipoprotein degeneration induced by group V sPLA2 (human group V sPLA2 [7]): inhibited
